Measurements: patent US5700640A, “Inducers of gamma globin gene expression and screening assays therefor” (priority 1994, dated 1997)

Columns and labels:
[1] = test system: gamma globin gene expression (gamma3'PE reporter) in K562 cells; assay: gamma globin promoter-luciferase reporter assay in stably transfected gamma3'PE K562 cells; settings: for reporter gene activity relative to VA or IVA (FIG. 5): 24 hours, fold-induction relative to isovaleric acid; for fold induction at 5000 µM: Homo sapiens, K562, 72 h, read-out: fold induction of reporter gene activity (FIG. 6); for induction of gamma-globin reporter gene expression over time course (FIG. 3): 24-122 hr, normalized to viable cells
Method: The gamma globin 5' promoter and 3' enhancer fragments, alone or in combination with each other or another fragment, were inserted into restriction endonuclease sites flanking the coding sequences of the luciferase gene in pGL2 using standard recombinant DNA techniques (pGL2 was obtained commercially from Promega Biotech). Constructs were prepared which contained: 1) the gamma globin promoter alone upstream of the luciferase gene (gamma); 2) the gamma globin promoter upstream of the luciferase gene and the gamma globin 3' enhancer downstream of the luciferase gene (gamma3'PE); 3) the gamma globin promoter upstream of the luciferase gene and the SV40 enhancer downstream of the luciferase gene (gammaSV40); 4) the beta globin promoter upstream of the luciferase gene and the gamma globin 3' enhancer downstream of the luciferase gene Coeta3'PE); and 5) hypersensitive sites 2 and 3 G-IS2 and HS3) of the 5' globin enhancer upstream of the gamma globin promoter upstream of the luciferase gene and the gamma globin 3' enhancer downstream of the luciferase gene (HS2/3gamma3'PE). These constructs are illustrated schematically in FIG. 2.
The gamma globin-luciferase reporter gene constructs described in Example 1 were introduced into a human erythroleukemia cell line K562 (ATCC No. CCL 243). To create stable transfectants, K562 cells (5×10^6) in log phase were suspended in 400 μl HEPES buffered saline and then combined with 33.5 μg salmon testes DNA (Sigma), 1.5 μg neo plasmid (pPMT) and 15 μg reporter gene plasmid supercoiled that had been co-precipitated and suspended in 400 μl HEPES buffered saline. The DNA-cell mixture was electroporated at settings of 0.25 KV and 960 μFD using a Gene Pulser (BioRad Inc.) electropotation apparatus.
The cells were allowed to recover 10 minutes at room temperature, then added to 10 ml complete RPMI cell culture medium. Cell debris was removed by centrifugation at 1000 rpm for 5 minutes. The live cells were suspended in 20 ml RPMI in 2×10 cm dishes and grown in non-selective media for 48 hours. Stably transfected cells were then selected by growing the cells in media containing 300 μg/ml G418 for about one month. During this time the cells were split 1:5 every 3 to 4 days. Once the lines were stable, they were carried in 100 μg/ml G418. The cell lines were designated according to the reporter gene construct that was introduced into the cell line. For example, a cell line carrying the gamma'3PE construct was designated gamma3'PE. Transient transfections were carried out similarly except that the neo plasmid was omitted from the electroporation solution and the cells were not subjected to G418 selection.
K562 host cells carrying gamma globin-reporter gene constructs were used to lo screen compounds for their ability to induce globin gene expression, as measured by increased reporter gene activity in the host cells upon treatment with the compound. The host cells described in Example 2 were grown to log phase cells and plated at a density of 2×10^5 /ml in RPMI media without G418. After 24 hours, compounds to be assayed for their ability to induce globin gene expression were dissolved in RPMI media at a concentration of 5 mM and added to the K562 stable transfectants. Mock-treated stably transfected K562 cells served as a negative control. The cells were incubated with the test compounds at 37° C. for various time periods (e.g., 24, 50, 74 and 122 hours).
After induction with the test compounds, the cells were harvested, lysed and assayed for reporter gene activity (i.e., luciferase activity) as follows. Cells were collected, washed once with PBS and lysed in 200 μl Cell Culture Lysis 1 X Reagent (Promega Luciferase Assay System) consisting of 25 mM Tris-Phosphate pH 7.8; 2 mM DTT; 2 mM 1,2-diaminocyclohexane-N,N,N,N-tetraacetic acid; 10% glycerol; 1% Triton X-100.

[2] = test system: BA-mediated induction of luciferase activity in gamma3'PE K562 cells; assay: effect of transport inhibitors on BA-induced reporter gene activity in gamma3'PE K562 cells; format: cell-based, human; settings: acetazolamide 1 mM, SITS 10 μM, amiloride 10 μM; 24 hours with BA
Method: To characterize uptake of butyric acid by erythroid cells, K562 cells stably transfected with gamma3'PE were treated with BA in the presence of various transport inhibitors. […] Cells were maintained in the continuous presence of both BA and the inhibitor for 24 hours and then luciferase activity in the cells was measured.

[3] = in vitro; settings: human, k562 cells
Method: (§1) To normalize luciferase units to the number of viable cells, parallel cell viability assays were performed using 3-(4,5-dimethylthiazol-2-yl)-2,5-diphenyltetrazolium bromide (MTT) (Vistica, D. T. et al. (1991) Cancer Res. 51:2515-2520). Transfected K562 cells were plated in 96 well dishes at a density of 2×10^4 and 2×10^3 cells per 100 μl per well. 24 hours later, the cells were treated with test compounds (at a final concentration of 5 mM). At 24, 50, 74 or 122 hours after treatment, 50 μl of 3 mg/ml MTT in PBS was added to each well. The 96 well plate was then incubated at 37° C. for 4 to 5 hours. The formazan derivatives formed from tetrazolium by viable cells were solubilized by the addition of 50 μl/well 25% SDS, pH 3, overnight at 37° C. The plates were than read at a wavelength of 550 nm.

[4] = test system: K562 cells; assay: in vitro
Method: as §1

[5] = test system: gamma globin reporter gene activity in gamma3'PE K562 cells (protein kinase C activation); assay: effect of indolactam V stereoisomers on basal and BA-induced reporter gene activity; format: cell-based, human; settings: for effect on BA-induced globin gene expression (fold increment vs untreated cells) / effect on basal level globin gene expression: 11 μM or 0.4 μM; for effect on BA-induced globin gene expression (fold increment vs untreated cells): 1 hour before 5 mM BA for 24 hours; for effect on basal level globin gene expression: no BA
Method: The role of activated protein kinase C (pKC) in the activation of gamma globin gene expression by BA was investigated. […] The chemical structures of these compounds are shown in FIG. 13, panel A and B, respectively. Gamma3'PE cells were pre-incubated with either inducer (at 11 μM or 0.4 μM) or left untreated for 1 hour prior to treatment with 5 mMBA for 24 hours, followed by harvesting of the cells and assaying of luciferase activity. The results are shown in FIG. 14, Panel A (11 μM inducer) and FIG. 14, Panel B (0.4 μM inducer). […] Thus, it appears that these compounds act synergistically through pathways converging at some point downstream of the initial site of action of either inducer.

[6] = test system: gamma globin mRNA; assay: Northern hybridization of gamma globin mRNA in treated K562 cells; format: cell-based, human; settings: for Raw Value, gamma globin RNA / Normalized Value, gamma globin RNA: K562 cells, 5 mM, 96 hours; for Normalized Value, gamma globin RNA: normalized to 28S ribosomal RNA; for gamma globin mRNA steady state level: vs untreated cells or cells treated with BA
Method: (§2) Total RNA was prepared by the method of McDonald as described in Sambrook et al., (1989) Molecular Cloning: A Laboratory Manual, 2nd Edition, Cold Spring Harbor Laboratory Press. 10 μg total cellular RNA was electrophoresed through agarose gels containing 3.3% formaldehyde. The electrophoresed RNA was then transferred to nitrocellulose filters by standard methods. Each sample was hybridized to specific probes for gamma globin mRNA, mRNA encoding the erythroid specific transcription factor GATA-1 and 28S ribosomal RNA (which was used for standardization). The gamma globin and GATA-1 probes were cDNA probes, which were labeled with ^32 p by random priming reactions (Promega Biotech Inc.). The 28S ribosomal RNA probe was an oligonucleotide having the sequence 5' […] 3' (SEQ ID NO: 3), which was labeled by 5' end labeling using T4 polynucleotide kinase (New England Biolabs). Nucleotide probes were hybridized to the RNA nitrocellulose filters according to standard techniques. After hybridization, radioactive signals on the nitrocellulose filters were directly quantified using a BioRad GS-250 Molecular Imager. mRNA hybridization intensities were normalized to the amount of 28S ribosomal RNA present for each sample.

[7] = test system: GATA-1 mRNA; assay: Northern hybridization of GATA-1 mRNA in treated K562 cells; format: cell-based, human; settings: for induction of mRNA encoding GATA-1: normalized data; for Normalized Value, GATA-1 RNA: normalized to 28S ribosomal RNA
Method: as §2

[8] = compared with induction mediated by BA

O=C(O)CCCc1ccccc1 [4-phenyl butyric acid]
reporter gene activity relative to VA or IVA (FIG. 5) ([1]; 5 mM): detectable reporter gene activity to a slightly greater extent than VA or IVA

CC(=O)Nc1ccc(C=Cc2ccc(N=C=S)cc2S(=O)(=O)O)c(S(=O)(=O)O)c1 [SITS]
effect on BA-mediated induction of luciferase activity [2]: did not affect BA-mediated induction of luciferase activity

C#CCCC(=O)O [4PyA, 4-pentynoic acid]
fold induction at 5000 µM [1]: ~4
viability at 72 h, 5000 µM [3]: > 50%
cell death accompanying gamma globin gene induction [4]: significantly less cell death than induction mediated by BA

O=C(O)CCc1ccccc1 [3-phenyl propionic acid]
reporter gene activity relative to VA or IVA (FIG. 5) ([1]; 5 mM): detectable reporter gene activity, although to a lesser extent than VA or IVA

CC(=O)Nc1nnc(S(N)(=O)=O)s1 [acetazolamide]
effect on BA-mediated induction of luciferase activity [2]: did not affect BA-mediated induction of luciferase activity

O=C(O)CCCCc1ccccc1 [5-phenyl valeric acid]
reporter gene activity relative to VA or IVA (FIG. 5) ([1]; 5 mM): detectable reporter gene activity, although to a lesser extent than VA or IVA

CC(C)[C@H]1C(=O)N[C@H](CO)Cc2c[nH]c3cccc(c23)N1C [(-) indolactam V]
effect on BA-induced globin gene expression (fold increment vs untreated cells) [5]: same fold increment
effect on basal level globin gene expression [5]: significant stimulatory effect on basal level globin gene expression
net increase in gene expression of combined treatment with BA ([5]; combined (-) indolactam V and 5 mM BA): well above the arithmetic sum of the level of induction achieved by either of these compounds separately

COCC(=O)O [MoAA, methoxyacetic acid]
fold induction at 5000 µM [1]: ~4
viability at 72 h, 5000 µM [3]: > 50%
cell death accompanying gamma globin gene induction [4, 8]: significantly less cell death than induction mediated by BA

CCCCC(=O)OC(=O)CCCC [valeric acid anhydride]
reporter gene activity relative to VA or IVA (FIG. 5) ([1]; 5 mM): detectable reporter gene activity, although to a lesser extent than VA or IVA

N=C(N)NC(=O)c1nc(Cl)c(N)nc1N [amiloride]
effect on BA-mediated induction of luciferase activity [2]: did not affect BA-mediated induction of luciferase activity

CCC(=O)O [propionic acid]
reporter gene activity relative to VA or IVA (FIG. 5) ([1]; 5 mM): detectable reporter gene activity, although to a lesser extent than VA or IVA

CC(C)[C@@H]1C(=O)N[C@@H](CO)Cc2c[nH]c3cccc(c23)N1C [(+) indolactam V]
effect on BA-induced globin gene expression (fold increment vs untreated cells) [5]: same fold increment
effect on basal level globin gene expression [5]: unaffected

CCCCC(=O)O [VA, valeric acid]
induction of gamma-globin reporter gene expression over time course (FIG. 3) ([1]; 5 mM): lower but sustained induction of reporter gene expression
induction relative to BA at 74 hr (FIG. 4) ([1]; 5 mM, normalized to fold induction by BA, 74 hr): marginally better inducers than BA at 74 hr
induction relative to BA at 122 hr (FIG. 4) ([1]; 5 mM, normalized to fold induction by BA, 122 hr): significantly better inducers than BA at 122 hr post induction
fold induction at 5000 µM ([6]; Homo sapiens, K562, 96 h, read-out: Fold Induction, gamma globin RNA): 4.4
Raw Value, gamma globin RNA [6]: 3.35 × 10^6
Normalized Value, gamma globin RNA [6]: 3.3 × 10^6
gamma globin mRNA steady state level [6]: higher steady state level of gamma globin mRNA than untreated cells or cells treated with BA
fold induction at 5000 µM ([7]; Homo sapiens, K562, 96 h, read-out: Fold Induction, GATA-1 RNA): 6
Raw Value, GATA-1 RNA ([7]; K562 cells, 5 mM, 96 hours): 3.96 × 10^5
induction of mRNA encoding GATA-1 [7]: significant induction of mRNA encoding GATA-1
Normalized Value, GATA-1 RNA ([7]; K562 cells, 5 mM, 96 hours): 3.5 × 10^5
cell death accompanying gamma globin gene induction [4]: significantly less cell death than induction mediated by BA
cell viability relative to untreated cells (FIG. 7) [4]: equivalent to that of untreated cells

CSCC(=O)O [MtAA, methylthioacetic acid]
fold induction at 5000 µM [1]: ~5
viability at 72 h, 5000 µM [3]: > 50%
cell death accompanying gamma globin gene induction [4]: significantly less cell death than induction mediated by BA

CC(C)CC(=O)O [IVA, isovaleric acid]
induction of gamma-globin reporter gene expression over time course (FIG. 3) ([1]; 5 mM): lower but sustained induction of reporter gene expression
Raw Value, gamma globin RNA [6]: 5.94 × 10^6
Normalized Value, gamma globin RNA [6]: 5.3 × 10^6
gamma globin mRNA steady state level [6]: higher steady state level of gamma globin mRNA than untreated cells or cells treated with BA
induction of mRNA encoding GATA-1 [7]: significant induction of mRNA encoding GATA-1
Normalized Value, GATA-1 RNA ([7]; K562 cells, 5 mM, 96 hours): 1.3 × 10^6
cell death accompanying gamma globin gene induction [4, 8]: significantly less cell death than induction mediated by BA
